Laboratory results from US10485235B2, “Aryloxypyrimidinyl ethers as herbicides” (FMC Corporation, priority 2015, dated 2019).

Test system: pigweed (Amaranthus retroflexus)
Test: Test A postemergence, pigweed
Format: in vivo
Conditions: 125 g ai/ha, postemergence; 0 to 100 scale, 0 is no effect, 100 is complete control; approximately 10 days
From the text: (§1) Seeds of plant species selected from barnyardgrass (Echinochloa crus-galli), kochia (Kochia scoparia), ragweed (common ragweed, Ambrosia elatior), ryegrass, Italian (Italian ryegrass, Lolium multiflorum), foxtail, giant (giant foxtail, Setaria faberii), and pigweed (Amaranthus retroflexus), were planted into a blend of loam soil and sand and treated preemergence with a directed soil spray using test chemicals formulated in a non-phytotoxic solvent mixture which included a surfactant.
(§2) At the same time, plants selected from these weed species and also wheat (Triticum aestivum), corn (Zea mays), blackgrass (Alopecurus myosuroides), and galium (catchweed bedstraw, Galium aparine), were planted in pots containing the same blend of loam soil and sand and treated with postemergence applications of test chemicals formulated in the same manner. Plants ranged in height from 2 to 10 cm and were in the one- to two-leaf stage for the postemergence treatment. Treated plants and untreated controls were maintained in a greenhouse for approximately 10 days, after which time all treated plants were compared to untreated controls and visually evaluated for injury. Plant response ratings, summarized in Table A, are based on a 0 to 100 scale where 0 is no effect and 100 is complete control. A dash (—) response means no test result.

Compound | Plant response rating, Pigweed
C#Cc1cccc(Oc2ncc(Cl)cn2)c1OCCCF [Compound 71] | 0

Same assay, conditions: Postemergence, 31 g ai/ha; 0 to 100 scale (0 no effect, 100 complete control)

Compound | Plant response rating, Pigweed
C#Cc1cccc(Oc2ncc(Cl)cn2)c1OCCCF [Compound 71] | 0

Test system: blackgrass (Alopecurus myosuroides)
Test: Test A postemergence, blackgrass
Format: in vivo
Conditions: 125 g ai/ha, postemergence; 0 to 100 scale, 0 is no effect, 100 is complete control; approximately 10 days
From the text: as §1, §2

Compound | Plant response rating, Blackgrass
C#Cc1cccc(Oc2ncc(Cl)cn2)c1OCCCF [Compound 71] | 0

Same assay, conditions: Postemergence, 31 g ai/ha; 0 to 100 scale (0 no effect, 100 complete control)

Compound | Plant response rating, Blackgrass
C#Cc1cccc(Oc2ncc(Cl)cn2)c1OCCCF [Compound 71] | 0

Test system: barnyardgrass (Echinochloa crus-galli)
Test: Test A postemergence, barnyardgrass
Format: in vivo
Conditions: 125 g ai/ha, postemergence; 0 to 100 scale, 0 is no effect, 100 is complete control; approximately 10 days
From the text: as §1, §2

Compound | Plant response rating, Barnyardgrass
C#Cc1cccc(Oc2ncc(Cl)cn2)c1OCCCF [Compound 71] | 0

Same assay, conditions: Postemergence, 31 g ai/ha; 0 to 100 scale (0 no effect, 100 complete control)

Compound | Plant response rating, Barnyardgrass
C#Cc1cccc(Oc2ncc(Cl)cn2)c1OCCCF [Compound 71] | 0

Test system: rice (Oryza sativa)
Test: Test B flooded paddy test, rice
Format: in vivo
Conditions: 250 g ai/ha, Flood; visual rating after 13 to 15 days; scale 0 to 100, 0 is no effect, 100 is complete control
Procedure: (§3) Plant species in the flooded paddy test selected from rice (Oryza sativa), sedge, umbrella (small-flower umbrella sedge, Cyperus difformis), ducksalad (Heteranthera limosa), and barnyardgrass (Echinochloa crus-galli) were grown to the 2-leaf stage for testing. At time of treatment, test pots were flooded to 3 cm above the soil surface, treated by application of test compounds directly to the paddy water, and then maintained at that water depth for the duration of the test. Treated plants and controls were maintained in a greenhouse for 13 to 15 days, after which time all species were compared to controls and visually evaluated. Plant response ratings, summarized in Table B, are based on a scale of 0 to 100 where 0 is no effect and 100 is complete control. A dash (—) response means no test result.

Compound | Plant response rating, Rice
C#Cc1cccc(Oc2ncc(Cl)cn2)c1OCCCF [Compound 71] | 0

Test system: foxtail, giant (giant foxtail, Setaria faberii)
Test: Test A preemergence, giant foxtail
Format: in vivo
Conditions: Preemergence, 31 g ai/ha; 0 to 100 scale (0 no effect, 100 complete control)
From the text: as §1, §2

Compound | Plant response rating, Foxtail, Giant
C#Cc1cccc(Oc2ncc(Cl)cn2)c1OCCCF [Compound 71] | 0

Same assay, conditions: Preemergence, 125 g ai/ha; 0 to 100 scale (0 no effect, 100 complete control)

Compound | Plant response rating, Foxtail, Giant
C#Cc1cccc(Oc2ncc(Cl)cn2)c1OCCCF [Compound 71] | 0

Test system: galium (catchweed bedstraw, Galium aparine)
Test: Test A postemergence, galium
Format: in vivo
Conditions: 125 g ai/ha, postemergence; 0 to 100 scale, 0 is no effect, 100 is complete control; approximately 10 days
From the text: as §1, §2

Compound | Plant response rating, Galium
C#Cc1cccc(Oc2ncc(Cl)cn2)c1OCCCF [Compound 71] | 0

Same assay, conditions: Postemergence, 31 g ai/ha; 0 to 100 scale (0 no effect, 100 complete control)

Compound | Plant response rating, Galium
C#Cc1cccc(Oc2ncc(Cl)cn2)c1OCCCF [Compound 71] | 0

Test system: foxtail, giant (giant foxtail, Setaria faberii)
Test: Test A postemergence, giant foxtail
Format: in vivo
Conditions: 125 g ai/ha, postemergence; 0 to 100 scale, 0 is no effect, 100 is complete control; approximately 10 days
From the text: as §1, §2

Compound | Plant response rating, Foxtail, Giant
C#Cc1cccc(Oc2ncc(Cl)cn2)c1OCCCF [Compound 71] | 0

Same assay, conditions: Postemergence, 31 g ai/ha; 0 to 100 scale (0 no effect, 100 complete control)

Compound | Plant response rating, Foxtail, Giant
C#Cc1cccc(Oc2ncc(Cl)cn2)c1OCCCF [Compound 71] | 0

Test system: ragweed (common ragweed, Ambrosia elatior)
Test: Test A postemergence, ragweed
Format: in vivo
Conditions: 125 g ai/ha, postemergence; 0 to 100 scale, 0 is no effect, 100 is complete control; approximately 10 days
From the text: as §1, §2

Compound | Plant response rating, Ragweed
C#Cc1cccc(Oc2ncc(Cl)cn2)c1OCCCF [Compound 71] | 0

Same assay, conditions: Postemergence, 31 g ai/ha; 0 to 100 scale (0 no effect, 100 complete control)

Compound | Plant response rating, Ragweed
C#Cc1cccc(Oc2ncc(Cl)cn2)c1OCCCF [Compound 71] | 0

Test system: pigweed (Amaranthus retroflexus)
Test: Test A preemergence, pigweed
Format: in vivo
Conditions: Preemergence, 31 g ai/ha; 0 to 100 scale (0 no effect, 100 complete control)
From the text: as §1, §2

Compound | Plant response rating, Pigweed
C#Cc1cccc(Oc2ncc(Cl)cn2)c1OCCCF [Compound 71] | 0

Same assay, conditions: Preemergence, 125 g ai/ha; 0 to 100 scale (0 no effect, 100 complete control)

Compound | Plant response rating, Pigweed
C#Cc1cccc(Oc2ncc(Cl)cn2)c1OCCCF [Compound 71] | 0

Test system: kochia (Kochia scoparia)
Test: Test A preemergence, kochia
Format: in vivo
Conditions: Preemergence, 31 g ai/ha; 0 to 100 scale (0 no effect, 100 complete control)
From the text: as §1, §2

Compound | Plant response rating, Kochia
C#Cc1cccc(Oc2ncc(Cl)cn2)c1OCCCF [Compound 71] | 0

Same assay, conditions: Preemergence, 125 g ai/ha; 0 to 100 scale (0 no effect, 100 complete control)

Compound | Plant response rating, Kochia
C#Cc1cccc(Oc2ncc(Cl)cn2)c1OCCCF [Compound 71] | 0

Test system: ryegrass, Italian (Italian ryegrass, Lolium multiflorum)
Test: Test A preemergence, Italian ryegrass
Format: in vivo
Conditions: Preemergence, 31 g ai/ha; 0 to 100 scale (0 no effect, 100 complete control)
From the text: as §1, §2

Compound | Plant response rating, Ryegrass, Italian
C#Cc1cccc(Oc2ncc(Cl)cn2)c1OCCCF [Compound 71] | 0

Same assay, conditions: Preemergence, 125 g ai/ha; 0 to 100 scale (0 no effect, 100 complete control)

Compound | Plant response rating, Ryegrass, Italian
C#Cc1cccc(Oc2ncc(Cl)cn2)c1OCCCF [Compound 71] | 0

Test system: wheat (Triticum aestivum)
Test: Test A postemergence, wheat
Format: in vivo
Conditions: 125 g ai/ha, postemergence; 0 to 100 scale, 0 is no effect, 100 is complete control; approximately 10 days
From the text: as §1, §2

Compound | Plant response rating, Wheat
C#Cc1cccc(Oc2ncc(Cl)cn2)c1OCCCF [Compound 71] | 0

Same assay, conditions: Postemergence, 31 g ai/ha; 0 to 100 scale (0 no effect, 100 complete control)

Compound | Plant response rating, Wheat
C#Cc1cccc(Oc2ncc(Cl)cn2)c1OCCCF [Compound 71] | 0

Test system: barnyardgrass (Echinochloa crus-galli)
Test: Test B flooded paddy test, barnyardgrass
Format: in vivo
Conditions: 250 g ai/ha, Flood; visual rating after 13 to 15 days; scale 0 to 100, 0 is no effect, 100 is complete control
Procedure: as §3

Compound | Plant response rating, Barnyardgrass
C#Cc1cccc(Oc2ncc(Cl)cn2)c1OCCCF [Compound 71] | 0

Test system: sedge, umbrella (small-flower umbrella sedge, Cyperus difformis)
Test: Test B flooded paddy test, umbrella sedge
Format: in vivo
Conditions: 250 g ai/ha, Flood; visual rating after 13 to 15 days; scale 0 to 100, 0 is no effect, 100 is complete control
Procedure: as §3

Compound | Plant response rating, Sedge, Umbrella
C#Cc1cccc(Oc2ncc(Cl)cn2)c1OCCCF [Compound 71] | 0

Test system: ragweed (common ragweed, Ambrosia elatior)
Test: Test A preemergence, ragweed
Format: in vivo
Conditions: Preemergence, 31 g ai/ha; 0 to 100 scale (0 no effect, 100 complete control)
From the text: as §1, §2

Compound | Plant response rating, Ragweed
C#Cc1cccc(Oc2ncc(Cl)cn2)c1OCCCF [Compound 71] | 0

Same assay, conditions: Preemergence, 125 g ai/ha; 0 to 100 scale (0 no effect, 100 complete control)

Compound | Plant response rating, Ragweed
C#Cc1cccc(Oc2ncc(Cl)cn2)c1OCCCF [Compound 71] | 0

Test system: barnyardgrass (Echinochloa crus-galli)
Test: Test A preemergence, barnyardgrass
Format: in vivo
Conditions: Preemergence, 31 g ai/ha; 0 to 100 scale (0 no effect, 100 complete control)
From the text: as §1, §2

Compound | Plant response rating, Barnyardgrass
C#Cc1cccc(Oc2ncc(Cl)cn2)c1OCCCF [Compound 71] | 0

Same assay, conditions: Preemergence, 125 g ai/ha; 0 to 100 scale (0 no effect, 100 complete control)

Compound | Plant response rating, Barnyardgrass
C#Cc1cccc(Oc2ncc(Cl)cn2)c1OCCCF [Compound 71] | 0

Test system: ducksalad (Heteranthera limosa)
Test: Test B flooded paddy test, ducksalad
Format: in vivo
Conditions: 250 g ai/ha, Flood; visual rating after 13 to 15 days; scale 0 to 100, 0 is no effect, 100 is complete control
Procedure: as §3

Compound | Plant response rating, Ducksalad
C#Cc1cccc(Oc2ncc(Cl)cn2)c1OCCCF [Compound 71] | 0

Test system: corn (Zea mays)
Test: Test A postemergence, corn
Format: in vivo
Conditions: 125 g ai/ha, postemergence; 0 to 100 scale, 0 is no effect, 100 is complete control; approximately 10 days
From the text: as §1, §2

Compound | Plant response rating, Corn
C#Cc1cccc(Oc2ncc(Cl)cn2)c1OCCCF [Compound 71] | 0

Same assay, conditions: Postemergence, 31 g ai/ha; 0 to 100 scale (0 no effect, 100 complete control)

Compound | Plant response rating, Corn
C#Cc1cccc(Oc2ncc(Cl)cn2)c1OCCCF [Compound 71] | 0

Test system: kochia (Kochia scoparia)
Test: Test A postemergence, kochia
Format: in vivo
Conditions: 125 g ai/ha, postemergence; 0 to 100 scale, 0 is no effect, 100 is complete control; approximately 10 days
From the text: as §1, §2

Compound | Plant response rating, Kochia
C#Cc1cccc(Oc2ncc(Cl)cn2)c1OCCCF [Compound 71] | 0

Same assay, conditions: Postemergence, 31 g ai/ha; 0 to 100 scale (0 no effect, 100 complete control)

Compound | Plant response rating, Kochia
C#Cc1cccc(Oc2ncc(Cl)cn2)c1OCCCF [Compound 71] | 0

Test system: ryegrass, Italian (Italian ryegrass, Lolium multiflorum)
Test: Test A postemergence, Italian ryegrass
Format: in vivo
Conditions: 125 g ai/ha, postemergence; 0 to 100 scale, 0 is no effect, 100 is complete control; approximately 10 days
From the text: as §1, §2

Compound | Plant response rating, Ryegrass, Italian
C#Cc1cccc(Oc2ncc(Cl)cn2)c1OCCCF [Compound 71] | 0

Same assay, conditions: Postemergence, 31 g ai/ha; 0 to 100 scale (0 no effect, 100 complete control)

Compound | Plant response rating, Ryegrass, Italian
C#Cc1cccc(Oc2ncc(Cl)cn2)c1OCCCF [Compound 71] | 0
